Measured values from patent US12084420B2, “Indoline compounds for inhibiting KIF18A” (Volastra Therapeutics, Inc., priority 2021, dated 2024).
pIC50, pKi: −log10 of the molar value. Where two headings read alike, the source gives them in different places.

Tests used:
NIH:OVCAR-3 cells = test: Cell viability of KIF18a-sensitive cell lines, NIH:OVCAR-3 (Cell Titre-Glo, 7 days); assay type: cell-based
Experimental: (§1) Cell Viability of KIF18a-Sensitive Cell Lines
(§2) Cell lines were seeded as follows 24 hours before compound treatment: HCC15 (Korean Cell Line Bank) 600 cell/well, 95 μL of RPMI-1640 media supplemented with 100 units/mL penicillin, 100 units/mL streptomycin and 10% FBS; NIH:OVCAR-3 (ATCC), 1000 cell/well, 95 μL of RPMI-1640 media supplemented with 100 units/mL penicillin, 100 units/mL streptomycin, 0.01 mg/mL bovine insulin, and 20% FBS; JIMT-1 (Addexbio) 1000 cell/well, 95 μL of DMEM media supplemented with 100 units/mL penicillin, 100 units/mL streptomycin, and 10% FBS.
(§3) Test compounds were added to cells in a 20× dilution scheme by adding 5 μL of serially diluted compound to the plate, and the treated cells were incubated for an additional 7 days in a 37° C., 5% CO2 incubator. DMSO was used as the negative control (0% effect), and wells omitting cells were used as the positive control (100% effect). The cells were incubated for seven days, and cell viability determined via the Promega Cell Titre-Glo® Assay kit. Luminescence units were converted to ATP concentrations via an ATP standard curve (10 point, 2-fold dilution from 5 uM). % Inhibition was calculated for each well as: ([max−min]−[test−min])/[max−min]. IC50 values were calculated from concentration vs. % Inhibition data via a four-parameter variable slope model.

[1] = target: KIF18a-Microtubule Complex (Homo sapiens (Human), UniProt Q8NI77); test: Binding kinetics to KIF18a-microtubule complex (global progress curve analysis); conditions: for kon (on-rate from binding kinetics assay) / koff (off-rate from binding kinetics assay): global progress curve analysis; for pKi: read-out: KI (determined from binding kinetic assay koff/kon), koff/kon; for koff: read-out: koff (off-rate from binding kinetics assay)
Summary of the method: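 kon and koff determined by global progress curve analysis, with ADP formation measured by ADP-Glo. Time- and dose-dependent progress curves were globally fitted to a Michaelis-Menten model with one-step slow-binding inhibition.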

JIMT-1 cells = test: Cell viability of KIF18a-sensitive cell lines, JIMT-1 (Cell Titre-Glo, 7 days); assay type: cell-based
Experimental: as §1, §2, §3

HCC15 cells = test: Cell viability of KIF18a-sensitive cell lines, HCC15 (Cell Titre-Glo, 7 days); assay type: cell-based
Experimental: as §1, §2, §3

hKIF18A (1-374) = hKIF18A (1-374) (Homo sapiens (Human), UniProt Q8NI77); test: Inhibition of KIF18A microtubule-dependent ATPase activity (ADP-Glo); conditions: KIF18A microtubule-dependent ATPase activity, biochemical assay
[2] = Homo sapiens, OVCAR-3, 168 h, NIH-OVCAR3 cells, 7 days, Cell Titre-Glo, read-out: NIH-OVCAR3 IC50
[3] = Homo sapiens, 168 h, JIMT-1 cells, 7 days, Cell Titre-Glo, read-out: JIMT-1 IC50
[4] = HCC15, 168 h, HCC-15 cells, 7 days, Cell Titre-Glo, read-out: HCC-15 IC50
[5] = NIH-OVCAR3 cells, 7 days, Cell Titre-Glo, read-out: NIH-OVCAR3 IC50
[6] = JIMT-1 cells, 7 days, Cell Titre-Glo, read-out: JIMT-1 IC50
[7] = HCC-15 cells, 7 days, Cell Titre-Glo, read-out: HCC-15 IC50

Chain of hKIF18A (1-374) (Q8NI77 whole entry, looked up): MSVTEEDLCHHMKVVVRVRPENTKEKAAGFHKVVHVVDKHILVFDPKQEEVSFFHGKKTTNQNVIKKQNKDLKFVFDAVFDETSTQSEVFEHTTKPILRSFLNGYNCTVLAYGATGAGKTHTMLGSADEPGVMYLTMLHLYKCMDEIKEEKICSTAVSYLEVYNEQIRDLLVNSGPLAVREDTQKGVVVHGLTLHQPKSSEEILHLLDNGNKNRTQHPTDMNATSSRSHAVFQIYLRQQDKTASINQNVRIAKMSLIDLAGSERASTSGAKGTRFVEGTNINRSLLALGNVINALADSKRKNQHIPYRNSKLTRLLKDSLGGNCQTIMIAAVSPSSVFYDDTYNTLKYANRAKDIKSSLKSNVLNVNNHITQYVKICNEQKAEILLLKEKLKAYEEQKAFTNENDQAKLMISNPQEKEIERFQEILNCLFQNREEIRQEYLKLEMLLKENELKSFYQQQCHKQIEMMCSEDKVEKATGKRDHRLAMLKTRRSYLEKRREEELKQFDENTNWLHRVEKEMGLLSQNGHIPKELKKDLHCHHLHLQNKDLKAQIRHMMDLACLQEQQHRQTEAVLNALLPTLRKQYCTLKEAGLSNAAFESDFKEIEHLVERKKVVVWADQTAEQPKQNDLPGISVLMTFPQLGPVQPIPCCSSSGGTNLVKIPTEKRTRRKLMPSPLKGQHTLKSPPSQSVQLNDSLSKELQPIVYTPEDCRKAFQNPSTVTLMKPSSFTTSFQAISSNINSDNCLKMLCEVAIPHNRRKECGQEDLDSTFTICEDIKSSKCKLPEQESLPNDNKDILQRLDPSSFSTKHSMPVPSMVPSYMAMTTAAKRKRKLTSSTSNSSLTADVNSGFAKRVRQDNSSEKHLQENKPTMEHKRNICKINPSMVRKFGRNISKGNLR
Chain of hKIF18A (1-374) (Q2XVP4 whole entry partner, looked up): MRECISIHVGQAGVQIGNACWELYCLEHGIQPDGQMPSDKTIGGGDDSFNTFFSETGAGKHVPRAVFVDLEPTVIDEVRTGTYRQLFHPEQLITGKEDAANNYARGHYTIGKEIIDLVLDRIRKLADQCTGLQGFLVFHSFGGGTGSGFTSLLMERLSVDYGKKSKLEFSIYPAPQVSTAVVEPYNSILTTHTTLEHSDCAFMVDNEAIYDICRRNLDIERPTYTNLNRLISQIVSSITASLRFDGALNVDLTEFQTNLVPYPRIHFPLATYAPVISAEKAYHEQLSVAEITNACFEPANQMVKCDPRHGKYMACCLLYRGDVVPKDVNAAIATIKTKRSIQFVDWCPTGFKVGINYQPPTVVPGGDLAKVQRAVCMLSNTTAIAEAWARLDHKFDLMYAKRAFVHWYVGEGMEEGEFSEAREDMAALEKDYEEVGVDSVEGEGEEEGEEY
Chain of hKIF18A (1-374) (P02554 whole entry partner, looked up): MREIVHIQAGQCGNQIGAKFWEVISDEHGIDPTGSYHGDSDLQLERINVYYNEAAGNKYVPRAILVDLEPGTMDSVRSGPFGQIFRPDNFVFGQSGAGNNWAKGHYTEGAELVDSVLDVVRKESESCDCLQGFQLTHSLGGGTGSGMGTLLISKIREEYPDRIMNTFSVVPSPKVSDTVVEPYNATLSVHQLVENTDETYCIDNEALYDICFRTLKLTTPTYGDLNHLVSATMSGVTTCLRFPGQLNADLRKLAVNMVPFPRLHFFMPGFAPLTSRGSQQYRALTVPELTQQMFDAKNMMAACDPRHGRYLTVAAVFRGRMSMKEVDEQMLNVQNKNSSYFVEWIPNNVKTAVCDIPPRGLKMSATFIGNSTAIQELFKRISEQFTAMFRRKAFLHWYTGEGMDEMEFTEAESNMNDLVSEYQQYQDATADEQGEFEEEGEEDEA
Chain of KIF18a-Microtubule Complex (Q8NI77 whole entry, looked up): as the sequence (Q8NI77 whole entry, looked up) above
Chain of KIF18a-Microtubule Complex (Q2XVP4 whole entry partner, looked up): as the sequence (Q2XVP4 whole entry partner, looked up) above
Chain of KIF18a-Microtubule Complex (P02554 whole entry partner, looked up): as the sequence (P02554 whole entry partner, looked up) above

Structure (SMILES)	pIC50 (NIH:OVCAR-3 cells; [2])	kon (on-rate from binding kinetics assay) [1] [M⁻¹ s⁻¹]	disc. t1/2 (dissociation half-life ln(2)/koff) ([1]; ln(2)/koff) [h]	pKi [1]	koff [1] [s⁻¹]	pIC50 (JIMT-1 cells; [3])	pIC50 (HCC15 cells; [4])	pIC50 (hKIF18A (1-374))	pIC50 (NIH:OVCAR-3 cells; Homo sapiens, OVCAR-3, 168 h, read-out: IC50, cell viability NIH: OVCAR3)	dissociation t1/2 ([1]; ln(2)/koff) [h]	pIC50 (JIMT-1 cells; Homo sapiens, JIMT-1, 168 h, read-out: IC50, cell viability JIMT-1)	pIC50 (HCC15 cells; HCC15, 168 h, read-out: IC50, cell viability HCC-15)	pIC50 (NIH:OVCAR-3 cells; [5])	koff (off-rate from binding kinetics assay) [1] [s⁻¹]	pIC50 (JIMT-1 cells; [6])	pIC50 (HCC15 cells; [7])
CS(=O)(=O)Nc1ccc2c(c1)C1(CCC3(CC3)CC1)CN2C(=O)c1cccc(S(=O)(=O)C2CC(F)(F)C2)c1 [Compound 322, N-(1″-(3-((3,3-difluorocyclobutyl)sulfonyl)benzoyl)dispiro[cyclopropane-1,1′-cyclohexane-4′,3″-indolin]-5″- yl)methanesulfonamide]	7.40	10300	5.7	8.48	3.33e-05	7.49	7.37	7.68								
Cc1cc(NC(=O)c2ccc(NS(=O)(=O)CCO)cc2N2CCC3(CC2)CC3)nc(N2CCC(F)(F)CC2)n1 [AMG650, 2-{6-azaspiro[2.5]octan-6-yl}-N-[2-(4,4-difluoropiperidin-1-yl)-6-methylpyrimidin-4-yl]-4-(2-hydroxyethanesulfonamido)benzamide, reference compound]									7.00	4.1	6.89	7.18				
CS(=O)(=O)Nc1ccc2c(c1)C1(CCC3(CC3)CC1)CN2C(=O)c1cccc(C(O)C2CCCC2)c1 (single isomer, unassigned) [Compound 165a]		11900	3.8	8.38				8.06					7.23	5e-05	7.35	7.17
CS(=O)(=O)Nc1ccc2c(c1)C1(CCC3(CC3)CC1)CN2C(=O)c1cccc(C(O)C2CCCC2)c1 (single isomer, unassigned) [Compound 165b]		11900	4.2	8.41				8.00					7.24	4.72e-05	7.42	7.34
CS(=O)(=O)Nc1ccc2c(c1)C1(CCC3(CC3)CC1)CN2C(=O)c1cccc(S(=O)(=O)NC2CC(F)(F)C2)c1 [Compound 192, N-(3,3-difluorocyclobutyl)-3-(5″- (methylsulfonamido)dispiro[cyclopropane-1,1′-cyclohexane-4′,3″-indoline]-1″-carbonyl)benzenesulfonamide]	6.39	14400	21	9.19	9.17e-06	6.30	6.29	8.00								
CCNc1ccc2c(c1)C1(CCC3(CC3)CC1)CN2C(=O)c1cccc(S(=O)(=O)N2CCC(F)(F)CC2)c1 [Compound 30, (3-((4,4-difluoropiperidin-1-yl)sulfonyl)phenyl)(5″-(ethylamino)dispiro[cyclopropane-1,1′-cyclohexane-4′,3″-indolin]-1″-yl)methanone]	5.84					5.64	5.46	6.74								
CC(C)(C)NS(=O)(=O)c1cccc(C(=O)N2CC3(CCC4(CC4)CC3)c3c2ccc(NS(C)(=O)=O)c3F)c1 [Compound 310, N-(tert-butyl)-3-(4″-fluoro-5″-(methylsulfonamido)dispiro[cyclopropane-1,1′-cyclohexane-4′,3″-indoline]-1″-carbonyl)benzenesulfonamide]	8.04					8.10	7.96	8.18								
CS(=O)(=O)Nc1ccc2c(c1)C1(CCCCC1)CN2C(=O)c1cccc(C(O)C2CCCC2)c1 (stereo not shown) [Compound 157, N-(1′-(3-(cyclopentyl(hydroxy)methyl)benzoyl)spiro[cyclohexane-1,3′-indolin]-5′-yl)methanesulfonamide]	6.14					6.36	6.22	7.24								
CS(=O)(=O)Nc1ccc2c(c1)C1(CCC3(CC3)CC1)CN2C(=O)c1cccc(S(=N)(=O)C2CCCC2)c1 (single isomer, unassigned) [Compound 287b]								7.92					7.48		7.19	7.01
